In PubChem BioAssay (NCI):
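96-well plates; 48 h exposure; 5 concentrations. Endpoints by linear interpolation between flanking doses. Not reached: highest tested concentration assigned. TGI: concentration producing complete growth inhibition.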

Tests used:
Experiment in all cases: growth of human tumour cells (NCI), 48 h
EKVX NSCLC = system: EKVX NSCLC
U251 CNS = system: U251 CNS
OVCAR-3 ovarian = system: OVCAR-3 ovarian
KM12 colon = system: KM12 colon
M14 melanoma = system: M14 melanoma
SN12C renal = system: SN12C renal
NCI-H226 lung = system: NCI-H226 lung
RXF 393 renal = system: RXF 393 renal
HL-60(TB) leukemia = system: HL-60(TB) leukemia
SF-539 CNS = system: SF-539 CNS
UO-31 renal = system: UO-31 renal
COLO 205 colon = system: COLO 205 colon
HCC-2998 colon = system: HCC-2998 colon
A498 renal = system: A498 renal

SMILES	TGI (EKVX NSCLC)	TGI (U251 CNS)	TGI (OVCAR-3 ovarian)	TGI (KM12 colon)	TGI (M14 melanoma)	TGI (SN12C renal)	TGI (NCI-H226 lung)	TGI (RXF 393 renal)	TGI (HL-60(TB) leukemia)	TGI (SF-539 CNS)	TGI (UO-31 renal)	TGI (COLO 205 colon)	TGI (HCC-2998 colon)	TGI (A498 renal)
COC(=O)C(Cc1c[nH]c2ccccc12)NP(=O)(O)OCC1OC(n2cc(Br)c(=O)[nH]c2=O)CC1O (stereo not drawn)	> 100 µM	> 100 µM	> 100 µM	> 100 µM	> 100 µM	> 100 µM	> 100 µM	> 100 µM	> 100 µM	> 100 µM	> 100 µM	> 100 µM	> 100 µM	> 100 µM
O=C(O)c1c2c(cc3c1CC1(Cc4cc5c(cc4C1=O)CCC5)C3)CCC2 (stereo not drawn)	> 100 µM	> 100 µM	> 100 µM	> 100 µM	> 100 µM	> 100 µM	> 100 µM	> 100 µM	> 100 µM	> 100 µM	> 100 µM	> 100 µM	> 100 µM	> 100 µM
COC(=O)c1c(C)cccc1C1CN=NC12Cc1cc(C)cc(C)c1C2=O (stereo not drawn)	> 100 µM	> 100 µM	> 100 µM	> 100 µM	> 100 µM	> 100 µM	> 100 µM	> 100 µM	44.2 µM	> 100 µM	> 100 µM	31.9 µM	68 µM	74.9 µM
CCCCc1ccc(Nc2nc(Cl)c3ccn(C4CC(Oc5ccc(C)cc5)C(COc5ccc(C)cc5)O4)c3n2)cc1 (stereo not drawn)	38 µM	> 46.4 µM	> 100 µM	> 46.4 µM	> 46.4 µM	> 46.4 µM	> 46.4 µM	> 46.4 µM	> 46.4 µM	> 46.4 µM	31.2 µM	> 46.4 µM	> 46.4 µM	> 46.4 µM
Cc1ccc(S(=O)(=O)N/N=C2\CC3CC4CCC2C4C3)cc1 (stereo not drawn)	> 100 µM	> 100 µM	> 100 µM	> 100 µM	> 100 µM	> 100 µM	> 100 µM	> 100 µM	> 100 µM	> 100 µM	> 100 µM	> 100 µM	> 100 µM	> 100 µM
CCN(CC)c1ccc(/C=C2\CCc3ccc([N+](=O)[O-])cc3C2=O)cc1	> 100 µM	> 100 µM	56.9 µM	> 100 µM	> 100 µM	> 100 µM	> 100 µM	> 29.9 µM	5.33 µM	7.09 µM	> 100 µM	> 100 µM	> 100 µM	69.9 µM
Cc1c(C)c(C)c(-n2c(=O)n(C)c(=O)n2-c2cc(C(C)(C)C)cc(C(C)(C)C)c2O)c(C)c1C	22.8 µM	19.6 µM	19.3 µM	> 45.3 µM	25.9 µM	21.7 µM	22.1 µM	11.6 µM	11.4 µM	24.3 µM	14.1 µM	20 µM	24.6 µM	26.3 µM
COC(=O)[C@]1(c2cc3ccccc3[nH]2)CC2CN(C(=O)OCc3ccccc3)C1CC2=O (stereo partly drawn)	43.7 µM	34.1 µM	> 100 µM	> 100 µM	75.1 µM	80.6 µM	63.4 µM	68.2 µM	44.4 µM	> 100 µM	> 100 µM	30.1 µM	> 100 µM	42.9 µM
CCOC(=O)/C=C(\C(=O)OCC)n1cc(Cl)c(=O)n(CC(=O)OCC)c1=O	30.9 µM	29.6 µM	8.69 µM	34.9 µM	10.2 µM	28.8 µM	31.7 µM	3.77 µM	7.39 µM	28.5 µM	3.27 µM	1.86 µM	37.5 µM	34.9 µM
C=CC(=O)N1C/C(=C\c2ccc([N+](=O)[O-])cc2)C(=O)/C(=C/c2ccc([N+](=O)[O-])cc2)C1	0.829 µM	0.978 µM	1.08 µM	0.607 µM	0.41 µM	0.772 µM	1.05 µM	0.359 µM	> 100 µM	0.151 µM	0.375 µM	0.273 µM	1.21 µM	0.807 µM
O=[N+]([O-])c1cc2ccc(N(CCO)CCO)nc2nc1N(CCO)CCO	> 100 µM	> 100 µM	> 100 µM	> 100 µM	> 100 µM	> 100 µM	> 100 µM	> 100 µM	> 100 µM	> 100 µM	> 100 µM	> 100 µM	> 100 µM	> 100 µM
Nn1c(=O)[nH]c2ncn(Cc3ccccc3)c2c1=O	> 100 µM	> 100 µM	> 100 µM	> 100 µM	> 100 µM	> 100 µM	> 100 µM	> 100 µM	> 100 µM	> 100 µM	> 100 µM	> 100 µM	> 100 µM	> 100 µM
